Experimental data reported in US6706663B2, “Herbicidal 3-heterocyclic substituted benzisothiazole and benzisoxazole compounds” (Wyeth, priority 2000, dated 2004).

What was measured:
[1] = test system: ECHORC (Echinochloa oryzoides); assay: Flooded paddy, preemergence weed control; assay type: in vivo, Echinochloa oryzoides (Ard.) Fritsch.; settings: rated 3-4 weeks after treatment, 0-9 rating scale
Outline: (§1)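 Visual 0-9 rating versus control, scoring stand, vigor, malformation, size, chlorosis and overall appearance. Silt loam soil, propagules in top 0.5 cm; flood depth 1.5–3 cm held for the whole test; greenhouse.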

[2] = test system: TRZAWR (Wheat, Winter, cv Riband); assay: Postemergence herbicidal evaluation; assay type: in vivo, Triticum aestivum; settings: for TRZAWR herbicidal rating: postemergence
Outline: (§2)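 Seedlings grown about two weeks in flats, sprayed, then kept under standard greenhouse care. Rated visually 4–5 weeks after treatment on a 0–9 scale (stand, vigour, malformation, size, chlorosis, overall appearance) relative to untreated control; repeat tests averaged.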

CYPIR (Cyperus iria) = assay: Flooded paddy, preemergence weed control; assay type: in vivo; settings: rated 3-4 weeks after treatment, 0-9 rating scale
Outline: as §1

GLXMA (Soybean) = assay: Preemergence herbicidal evaluation; assay type: in vivo, Glycine max, (L.) Merr.; settings: rated 4-5 weeks after treatment
ZEAMX (Corn, Field) = assay: Preemergence herbicidal evaluation; assay type: in vivo, Zea mays, L.; settings: rated 4-5 weeks after treatment
[3] = test system: MOOVA (Monochoria vaginalis); assay: Flooded paddy, preemergence weed control; assay type: in vivo, Presl.; settings: rated 3-4 weeks after treatment, 0-9 rating scale
Outline: as §1

SETVI (Setaria viridis) [4] = assay: Postemergence herbicidal evaluation; assay type: in vivo, (L.) Beau; settings: for SETVI herbicidal rating: postemergence
Outline: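 Seedlings about two weeks old were sprayed with compound in 50/50 acetone/water plus 0.5% TWEEN 20, at the equivalent of about 0.0040 to 1.000 kg/ha. Plants were kept in a greenhouse and visually rated 0-9 against a control four to five weeks after treatment. Repeat tests were averaged.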

[5] = test system: GLXMAW (Soybean, Williams); assay: Preemergence herbicidal evaluation; assay type: in vivo, Glycine max, (L.) Merr. cv Williams; settings: rated 4-5 weeks after treatment
SETVI (Setaria viridis) [6] = assay: Preemergence herbicidal evaluation; assay type: in vivo, (L.) Beau; settings: rated 4-5 weeks after treatment
Outline: (§3)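 Scores (0–9) reflect visual comparison with control plants for stand, vigor, malformation, size and chlorosis. Seeds in potting soil received a post-planting spray of compound in aqueous acetone and grew in a greenhouse until assessment 4–5 weeks later.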

[7] = test system: ECHCG (Echinochloa crus-galli); assay: Preemergence herbicidal evaluation; assay type: in vivo, (L.) Beau; settings: rated 4-5 weeks after treatment
Outline: as §3

[8] = test system: IPOHE (Ipomoea hederacea); assay: Postemergence herbicidal evaluation; assay type: in vivo, (L.) Jacq.; settings: for IPOHE herbicidal rating: postemergence
Outline: as §2

[9] = test system: SAGPY (Sagittaria pygmaea); assay: Flooded paddy, postemergence weed control; assay type: in vivo, L.; settings: postemergence weeds, rated 3-4 weeks after treatment
Source text: (§4) Results of herbicide evaluation are expressed on a rating scale (0-9). The scale is based upon a visual observation of plant stand, vigor, malformation, size, chlorosis and overall plant appearance as compared with a control.
(§5) Plastic containers containing weeds which are 3 to 5 cm tall and rice seedlings at the 1.5 to 2.5 leaf stage are flooded with water. The water is maintained at 1.5 to 3 cm above the soil surface for the duration of the experiment. Test compounds are applied as aqueous/acetone mixtures 50/50 v/v directly into the flood water to provide the equivalent of about 0.0320 to 0.2500 kg/ha of active ingredient. The treated containers are placed on greenhouse benches and cared for in accordance with conventional greenhouse procedures. Three to four weeks after treatment, the test is terminated and each container is examined and herbicidal effect rated according to the rating system provided in Example 87. The compounds evaluated are identified in Example 87 and plant species used are identified in Example 89.

[10] = test system: ECHORC (Echinochloa oryzoides); assay: Flooded paddy, postemergence weed control; assay type: in vivo, Echinochloa oryzoides (Ard.) Fritsch.; settings: postemergence weeds, rated 3-4 weeks after treatment
Source text: as §4, §5

[11] = test system: CYPSE (Cyperus serotinus); assay: Flooded paddy, postemergence weed control; assay type: in vivo, Rottb.; settings: postemergence weeds, rated 3-4 weeks after treatment
Source text: as §4, §5

[12] = test system: MOOVA (Monochoria vaginalis); assay: Flooded paddy, postemergence weed control; assay type: in vivo, Presl.; settings: postemergence weeds, rated 3-4 weeks after treatment
Source text: as §4, §5

ORYSAT (Rice, Tebonnet) = assay: Flooded paddy, post-transplant and postemergence rice tolerance; assay type: in vivo, Oryza sativa, (L.) Tebonnet; settings: post-transplant rice, rated 3-4 weeks after treatment
Source text: as §4, §5

Compound: Cn1c(C(F)(F)F)cc(=O)n(-c2ccc3snc(C4OCCO4)c3c2)c1=O [Compound 45, 3-[3-(1,3-dioxolan-2-yl)-1,2-benzisothiazol-5-yl]-1-methyl-6-(trifluoromethyl)uracil]
- herbicidal rating, ECHORC ([1]; rate 0.0080 kg/ha): 3.5
- herbicidal rating, ECHORC ([1]; rate 0.0320 kg/ha): 7.3
- herbicidal rating, ECHORC ([1]; rate 0.1250 kg/ha): 9.0
- Postemergence herbicidal rating, TRZAWR ([2]; rate 0.0320 kg/ha): 4.4
- Postemergence herbicidal rating, TRZAWR ([2]; rate 0.0620 kg/ha): 5.0
- herbicidal rating, CYPIR (CYPIR (Cyperus iria); rate 0.0080 kg/ha): 9.0
- herbicidal rating, CYPIR (CYPIR (Cyperus iria); rate 0.0320 kg/ha): 9.0
- herbicidal rating, CYPIR (CYPIR (Cyperus iria); rate 0.1250 kg/ha): 9.0
- Preemergence herbicidal rating GLXMA (GLXMA (Soybean); Rate 0.0620 kg/ha): 9.0
- Preemergence herbicidal rating GLXMA (GLXMA (Soybean); Rate 0.1250 kg/ha): 9.0
- Preemergence herbicidal rating GLXMA (GLXMA (Soybean); Rate 0.2500 kg/ha): 9.0
- Preemergence herbicidal rating ZEAMX (ZEAMX (Corn, Field); Rate 0.0620 kg/ha): 8.8
- Preemergence herbicidal rating ZEAMX (ZEAMX (Corn, Field); Rate 0.1250 kg/ha): 9.0
- Preemergence herbicidal rating ZEAMX (ZEAMX (Corn, Field); Rate 0.2500 kg/ha): 8.7
- herbicidal rating, MOOVA ([3]; rate 0.0080 kg/ha): 4.5
- herbicidal rating, MOOVA ([3]; rate 0.0320 kg/ha): 9.0
- herbicidal rating, MOOVA ([3]; rate 0.1250 kg/ha): 9.0
- Postemergence herbicidal rating, SETVI (SETVI (Setaria viridis) [4]; rate 0.0320 kg/ha): 6.3
- Postemergence herbicidal rating, SETVI (SETVI (Setaria viridis) [4]; rate 0.0620 kg/ha): 9.0
- Preemergence herbicidal rating GLXMAW ([5]; Rate 0.0620 kg/ha): 9.0
- Preemergence herbicidal rating GLXMAW ([5]; Rate 0.1250 kg/ha): 9.0
- Preemergence herbicidal rating GLXMAW ([5]; Rate 0.2500 kg/ha): 9.0
- Preemergence herbicidal rating SETVI (SETVI (Setaria viridis) [6]; Rate 0.0620 kg/ha): 9.0
- Preemergence herbicidal rating SETVI (SETVI (Setaria viridis) [6]; Rate 0.1250 kg/ha): 9.0
- Preemergence herbicidal rating SETVI (SETVI (Setaria viridis) [6]; Rate 0.2500 kg/ha): 9.0
- Preemergence herbicidal rating ECHCG ([7]; Rate 0.0620 kg/ha): 9.0
- Preemergence herbicidal rating ECHCG ([7]; Rate 0.1250 kg/ha): 9.0
- Preemergence herbicidal rating ECHCG ([7]; Rate 0.2500 kg/ha): 9.0
- Postemergence herbicidal rating, IPOHE ([8]; rate 0.0320 kg/ha): 9.0
- Postemergence herbicidal rating, IPOHE ([8]; rate 0.0620 kg/ha): 9.0

Compound: Cn1c(C(F)(F)F)cc(=O)n(-c2ccc3snc(C4OC(C)(C)C(C)(C)O4)c3c2)c1=O [Compound 56, 1-methyl-3-[3-(4,4,5,5-tetramethyl-1,3-dioxolan-2-yl)-1,2-benzisothiazol-5-yl]-6-(trifluoromethyl)uracil]
- herbicide rating (0-9) SAGPY ([9]; 0.0320 kg/ha into flood water): 0.0
- herbicide rating (0-9) SAGPY ([9]; 0.0620 kg/ha into flood water): 0.0
- herbicide rating (0-9) SAGPY ([9]; 0.1250 kg/ha into flood water): 2.0
- herbicidal rating, ECHORC ([1]; rate 0.0080 kg/ha): 9.0
- herbicidal rating, ECHORC ([1]; rate 0.0320 kg/ha): 9.0
- herbicidal rating, ECHORC ([1]; rate 0.1250 kg/ha): 9.0
- TRZAWR herbicidal rating ([2]; rate 0.0320 kg/ha): 3.5
- TRZAWR herbicidal rating ([2]; rate 0.0620 kg/ha): 4.5
- herbicidal rating, CYPIR (CYPIR (Cyperus iria); rate 0.0080 kg/ha): 6.0
- herbicidal rating, CYPIR (CYPIR (Cyperus iria); rate 0.0320 kg/ha): 8.0
- herbicidal rating, CYPIR (CYPIR (Cyperus iria); rate 0.1250 kg/ha): 9.0
- Preemergence herbicidal rating ZEAMX (ZEAMX (Corn, Field); Rate 0.0620 kg/ha): 7.0
- Preemergence herbicidal rating ZEAMX (ZEAMX (Corn, Field); Rate 0.1250 kg/ha): 7.0
- Preemergence herbicidal rating ZEAMX (ZEAMX (Corn, Field); Rate 0.2500 kg/ha): 8.0
- herbicide rating (0-9) ECHORC ([10]; 0.0320 kg/ha into flood water): 9.0
- herbicide rating (0-9) ECHORC ([10]; 0.0620 kg/ha into flood water): 9.0
- herbicide rating (0-9) ECHORC ([10]; 0.1250 kg/ha into flood water): 9.0
- herbicide rating (0-9) CYPSE ([11]; 0.0620 kg/ha into flood water): 0.0
- herbicide rating (0-9) CYPSE ([11]; 0.1250 kg/ha into flood water): 9.0
- herbicidal rating, MOOVA ([3]; rate 0.0080 kg/ha): 9.0
- herbicidal rating, MOOVA ([3]; rate 0.0320 kg/ha): 9.0
- herbicidal rating, MOOVA ([3]; rate 0.1250 kg/ha): 9.0
- SETVI herbicidal rating (SETVI (Setaria viridis) [4]; rate 0.0320 kg/ha): 2.0
- SETVI herbicidal rating (SETVI (Setaria viridis) [4]; rate 0.0620 kg/ha): 4.0
- Preemergence herbicidal rating GLXMAW ([5]; Rate 0.0620 kg/ha): 7.5
- Preemergence herbicidal rating GLXMAW ([5]; Rate 0.1250 kg/ha): 9.0
- Preemergence herbicidal rating GLXMAW ([5]; Rate 0.2500 kg/ha): 9.0
- Preemergence herbicidal rating SETVI (SETVI (Setaria viridis) [6]; Rate 0.0620 kg/ha): 8.5
- Preemergence herbicidal rating SETVI (SETVI (Setaria viridis) [6]; Rate 0.1250 kg/ha): 9.0
- Preemergence herbicidal rating SETVI (SETVI (Setaria viridis) [6]; Rate 0.2500 kg/ha): 9.0
- Preemergence herbicidal rating ECHCG ([7]; Rate 0.0620 kg/ha): 9.0
- Preemergence herbicidal rating ECHCG ([7]; Rate 0.1250 kg/ha): 9.0
- Preemergence herbicidal rating ECHCG ([7]; Rate 0.2500 kg/ha): 9.0
- herbicide rating (0-9) MOOVA ([12]; 0.0320 kg/ha into flood water): 2.0
- herbicide rating (0-9) MOOVA ([12]; 0.0620 kg/ha into flood water): 4.0
- herbicide rating (0-9) MOOVA ([12]; 0.1250 kg/ha into flood water): 7.0
- IPOHE herbicidal rating ([8]; rate 0.0320 kg/ha): 9.0
- IPOHE herbicidal rating ([8]; rate 0.0620 kg/ha): 9.0
- herbicide rating (0-9) ORYSAT (rice tolerance) (ORYSAT (Rice, Tebonnet); 0.0320 kg/ha into flood water): 7.0
- herbicide rating (0-9) ORYSAT (rice tolerance) (ORYSAT (Rice, Tebonnet); 0.0620 kg/ha into flood water): 7.0
- herbicide rating (0-9) ORYSAT (rice tolerance) (ORYSAT (Rice, Tebonnet); 0.1250 kg/ha into flood water): 9.0
